# Tested on: normotensive awake dogs
# Experiment: Mean arterial blood pressure in normotensive awake dogs after oral administration
# Format: in vivo, beagle dogs
# Settings: Compound A 10 mg/kg, bucindolol 0.1 mg/kg; for mean arterial blood pressure, change with respect to the initial value: combination 10 + 0.1 mg/kg, mean values
# Experimental: In a crossover design, the test substance was administered orally as a capsule to chronically instrumented male beagle dogs (approx 14 kg). The capsule either contained nothing (control N=5), compound A (10 mg/kg, N=10), bucindolol (0.1 mg/kg; N=5) or the combination bucindolol + compound A (0.1+10 mg/kg; N=5). In between the individual administrations, a washing phase of at least one week was observed. The systolic and the diastolic blood pressure were measured using a Statham Transducer P 23 Db, from which the mean arterial blood pressure was calculated. The blood pressure was recorded for 6 h (MI^2, Modular Instrumente, USA).
# Development of the mean arterial blood pressure (mmHg, change with respect to the initial value) in normotensive awake dogs after oral administration of different substances, what is shown are the mean values
structure (smiles),measurement,setting,value
"CC(C)(Cc1c[nH]c2ccccc12)NCC(O)COc1ccccc1C#N (stereo not shown) [Bucindolol, bucindolol]","mean arterial blood pressure, change with respect to the initial value",1h after oral capsule,−0.8 mmHg
same,"mean arterial blood pressure, change with respect to the initial value",2h after oral capsule,−3.8 mmHg
same,"mean arterial blood pressure, change with respect to the initial value",3h after oral capsule,−3.4 mmHg
same,"mean arterial blood pressure, change with respect to the initial value",4h after oral capsule,−3.8 mmHg
same,"mean arterial blood pressure, change with respect to the initial value",5h after oral capsule,−3.8 mmHg
same,"mean arterial blood pressure, change with respect to the initial value",6h after oral capsule,−1.4 mmHg
same,"effect on blood pressure, in words","oral capsule, recorded for 6 h, combination 0.1+10 mg/kg",does not decrease

# Source: patent US6352992B1, “Endothelin antagonist and beta receptor blocking agent as combined preparations” (Abbott Laboratories, priority 1997, dated 2002)
